Read-outs that look alike come from different tables or passages of the source.
Tests used:
TTR [1] = assay: TTR editing in mouse liver by NGS after i.v. LNP delivery of Cas9 mRNA and sgRNA; assay type: in vivo; conditions: CD-1 female mice, 7 days post-dose; for Editing Mean % Indel: G282 1:1
Method in brief: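 Cas9 mRNA and chemically modified sgRNA were co-formulated in LNPs made of an ionizable amine lipid, DSPC, cholesterol and PEG-2k-DMG at a 6.0 N:P ratio. CD-1 female mice aged 6-10 weeks received tail-vein injections of 0.2 mL. Liver genomic DNA was then amplified around the target site and sequenced on an Illumina MiSeq, with editing calculated as indel-containing reads over total reads.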

TTR [2] = assay: Transthyretin (TTR) ELISA analysis of mouse serum after LNP dosing; assay type: in vivo; conditions: 7 days post-dose
Method in brief: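 Female CD-1 mice aged 6-10 weeks were grouped by body weight and given LNPs by lateral tail vein injection (0.2 mL per animal, about 10 mL per kilogram). Mice were bled by cardiac puncture under isoflurane into serum separator tubes. Serum was diluted 10,000-fold for the 0.1 mpk dose, and total TTR was quantified with a Mouse Prealbumin (Transthyretin) ELISA Kit following the kit directions.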

[3] = RNA encapsulation efficiency of LNP (Ribogreen fluorescence assay); assay type: physicochemical
Method in brief: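 LNP samples diluted in 1× TE buffer with 0.2% Triton X-100 (total RNA) or without it (free RNA), stained with RiboGreen for ~10 min at room temperature in the dark, read at ex 488/em 525 nm against RNA standard curves. Encapsulation efficiency = (Total RNA − Free RNA)/Total RNA.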

SMILES	Editing Mean % Indel (TTR [1]; Example 63: 0.03 mpk i.v.)	Editing Mean % Indel (TTR [1]; Example 63: 0.1 mpk i.v.)	Serum TTR (TTR [2]; Example 63: 0.03 mpk i.v., G282 1:1)	Serum TTR (TTR [2]; Example 63: 0.1 mpk i.v., G282 1:1)	response vs control in vivo at 0.03 mg/kg (TTR [2]; Mus musculus, iv, 168 h, Example 63: 0.03 mpk i.v., G282 1:1, read-out: Serum TTR % TSS)	response vs control in vivo at 0.1 mg/kg (TTR [2]; Mus musculus, iv, 168 h, Example 63: 0.1 mpk i.v., G282 1:1, read-out: Serum TTR % TSS)	Encapsulation (%) ([3]; Table 24, Example 63: LNP, G282 (TTR) 1:1 w/w, NP 6.0)	Editing % (TTR [1]; Example 56: 0.1 mpk i.v., G282)	Editing Mean % Indel (TTR [1]; Example 59: 0.1 mpk i.v.)	Editing Mean % Indel (TTR [1]; Example 61: 0.1 mpk i.v.)	Serum TTR (TTR [2]; Example 56: 0.1 mpk i.v., G282)	Serum TTR (% TSS) (TTR [2]; Example 56: 0.1 mpk i.v., G282)	Serum TTR (TTR [2]; Example 59: 0.1 mpk i.v., G282 1:1)	Serum TTR (TTR [2]; Example 61: 0.1 mpk i.v., G282 1:1)	response vs control in vivo at 0.1 mg/kg (TTR [2]; Mus musculus, iv, 168 h, Example 59: 0.1 mpk i.v., G282 1:1, read-out: Serum TTR % TSS)	response vs control in vivo at 0.1 mg/kg (TTR [2]; Mus musculus, iv, 168 h, Example 61: 0.1 mpk i.v., G282 1:1, read-out: Serum TTR % TSS)	Encapsulation (%) ([3]; Table 12, Example 56: LNP, G282 (TTR), ratio 6.0)	Encapsulation (%) ([3]; Table 16, Example 59: LNP, G282 (TTR) 1:1 w/w, N:P 6.0)	Encapsulation (%) ([3]; Table 20, Example 61: LNP, G282 (TTR) 1:1 w/w, N:P 6.0)
CCCCCCCCOC(CCCCCCCN(CCO)CCCCCCCC(=O)OC(CC)CCCCCC)OCCCCCCCC (stereo not shown) [Compound 28, nonan-3-yl 8-((8,8-bis(octyloxy)octyl)(2-hydroxyethyl)amino)octanoate]	20.74%	42.36%	493.60 µg/mL	321.26 µg/mL	61.2%	39.8%	97%	–	–	–	–	–	–	–	–	–	–	–	–
CCCCCCCCCOC(=O)CCCCCCCN(CCO)CCCCCCCC(=O)OC(CCCCCCCC)CCCCCCCC [Compound 18, heptadecan-9-yl 8-((2-hydroxyethyl)(8-(nonyloxy)-8-oxooctyl)amino)octanoate, reference compound]	–	–	–	–	–	–	–	33%	41.6%	26.8%	415 µg/mL	52 % TSS	324 µg/mL	615 µg/mL	35%	48%	81%	98%	90%

— patent US20260225997A1, “IONIZABLE AMINE LIPIDS” (Intellia Therapeutics, Inc., priority 2018, published 2026)
